The subject of assay [1] is B. longum strain CNCM I-2618 (NCC 2705). As to the kind of experiment: Culture density (Optical Density at 600 nm) of B. longum NCC 2705 grown on carbohydrates. It is filed as cell-based, Bifidobacterium longum subsp longum. The settings on record: grown on different carbohydrates for 24 h and 48 h (FIG. 2). The protocol:
B. longum strain CNCM I-2618 (NCC 2705) was grown in Biolector (growth conditions-anaerobic, 37° C.) in MRS+5 mM L-cysteine (MRSc) base without sugar, to which different carbohydrates were added. 48-well microtiter plate with pH sensor and dissolved oxygen (DO) sensor were used to culture the strains in Biolector […]-labs Aachen, Germany). It was continuously shaken to prevent bacteria aggregation for 24 h and 48 h. Cultures were harvested by centrifugation and supernatant was removed. Pellet was resuspended in PBS supplemented with halt protease inhibitor (Sigma) and lysed using glassbeads. Lysate containing both soluble and insoluble material was then collected. Total protein content was measured using Pierce BCA kit (Thermofisher) and serpin protein concentration was determined using ELISA.

For assay [2] the test system is unchanged. As to the kind of experiment: Serpin protein levels (ELISA) in B. longum NCC 2705 grown on different carbohydrates. The assay is classed as cell-based, Bifidobacterium longum subsp longum. As to the method: B. longum strain CNCM I-2618 (NCC 2705) was grown in Biolector (growth conditions—anaerobic, 37° C.) in MRS+5 mM L-cysteine (MRSc) base without sugar, to which different carbohydrates were added.
48-well microtiter plate with pH sensor and dissolved oxygen (DO) sensor were used to culture the strains in Biolector (m2p-labs Aachen, Germany). It was continuously shaken to prevent bacteria aggregation for 24 h and 48 h. Cultures were harvested by centrifugation and supernatant was removed. Pellet was resuspended in PBS supplemented with halt protease inhibitor (Sigma) and lysed using glassbeads. Lysate containing both soluble and insoluble material was then collected. Total protein content was measured using Pierce BCA kit (Thermofisher) and serpin protein concentration was determined using ELISA.
B. longum NCC 2705 was cultured in Biolector (as described in Example 1) in a base of MRSc without sugar, with the addition of different di-saccharides and tri-saccharides, at concentrations of 0.5 wt % and 1 wt %. Cultures were collected after 48 h of growth and analyzed for total & serpin protein levels (as described in Example 1).
B. longum NCC 2705 was cultured in Biolector (as described in Example 1) in a base of MRSc without sugar, with the addition of different short chain fructo-oligosaccharides (FOS), at concentrations of 1 wt %. Cultures were collected after 16 h of growth and analyzed for total & serpin protein levels (as described in Example 1).
The FOS used were (i) NutraFlora P95 FOs from Ingredion Inc, USA., a short-chain FOS with Glucose-Fructose (GF) chains with DP from 3 to 5 and comprising GF2, GF3 and GF4 molecules; (ii) Orafti P95 from Beneo, a short-chain FOS with DP from 2 to 8.

Assay [3] has as its system various forms of elastases and proteinase. The settings on record: cited from earlier work.
Assay [4] concerns the target T1, transglutaminase 2 (TG2) (Homo sapiens, UniProt P21980).
T1 sequence (P21980 1-687): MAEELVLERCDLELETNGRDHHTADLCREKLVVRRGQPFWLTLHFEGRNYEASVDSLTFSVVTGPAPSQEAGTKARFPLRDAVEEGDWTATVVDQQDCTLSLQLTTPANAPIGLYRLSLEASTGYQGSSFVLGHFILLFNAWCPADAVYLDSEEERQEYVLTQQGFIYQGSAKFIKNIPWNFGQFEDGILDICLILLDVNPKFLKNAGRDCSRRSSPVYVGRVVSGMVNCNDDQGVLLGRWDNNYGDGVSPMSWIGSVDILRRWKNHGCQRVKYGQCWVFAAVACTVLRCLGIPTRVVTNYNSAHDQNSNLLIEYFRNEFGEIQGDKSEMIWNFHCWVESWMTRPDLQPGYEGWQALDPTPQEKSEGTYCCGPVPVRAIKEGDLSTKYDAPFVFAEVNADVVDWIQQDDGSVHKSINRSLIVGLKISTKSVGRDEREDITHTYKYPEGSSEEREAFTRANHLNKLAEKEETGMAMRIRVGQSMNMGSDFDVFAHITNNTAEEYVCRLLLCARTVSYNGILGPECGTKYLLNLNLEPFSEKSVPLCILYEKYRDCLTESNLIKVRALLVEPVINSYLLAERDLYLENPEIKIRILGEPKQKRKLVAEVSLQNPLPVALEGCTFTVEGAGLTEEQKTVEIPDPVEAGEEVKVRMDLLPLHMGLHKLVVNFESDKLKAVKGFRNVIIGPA
To be noted: in-vitro, addition of elafin; cited from earlier work.

Ends that are not written are not given here.

Regarding `O=C(CO)[C@@H](O)[C@H](O)[C@H](O)CO` [fructose, reference compound], the “growth (culture density, Optical Density at 600 nm)” value in assay [1] is “retarded growth”. For the same compound, the serpin protein levels result in assay [2] (grown for 48 h on different carbohydrates, compared to all other sugars tested (FIG. 1)) is on record as “increase B. longum NCC 2705 serpin protein levels”. For the same compound, in assay [2] (grown on different carbohydrates for 24 h and 48 h (FIG. 2)), the serpin induction entry was “induce serpin in B. longum NCC 2705 to a higher magnitude than galactose”.

As to `OC[C@H]1O[C@H](OC[C@H]2O[C@H](O[C@]3(CO)O[C@H](CO)[C@@H](O)[C@@H]3O)[C@H](O)[C@@H](O)[C@@H]2O)[C@H](O)[C@@H](O)[C@H]1O` [raffinose], the serpin levels entry in assay [2] (0.5 wt %, 48 h of growth, MRSc base without sugar (FIG. 3), effect not obtained at 1 wt %) is listed as “significant increase in serpin levels”.

Turning to `OC[C@H]1O[C@@](CO)(O[C@H]2O[C@H](CO)[C@@H](O)[C@H](O)[C@H]2O)[C@@H](O)[C@@H]1O` [saccharose], in assay [2] (1 wt %, 48 h of growth, MRSc base without sugar (FIG. 3)), the serpin production result is reported as “induce strongly serpin production”.

Turning to “elafin: human serine protease inhibitor (AQEPVKGPVSTKPGSCPIILIRCAMLNPPNRCLKDTDCPGIKKCCEGSCGMACFVPQ; ends and bridges not checked; cysteine pairing not given here; UniProt P19957 61-117, looked up)”, in assay [3], the “inhibitory capacity against elastases and proteinase” value is “potent inhibitory capacity”. Besides, in assay [4], the “inhibition of transglutaminase 2 (TG2)” value is listed as “moderately inhibits transglutaminase 2 (TG2)”.

These data come from US12644094B2, “Serpin production” (SOCIETE DES PRODUITS NESTLE S.A., priority 2019, dated 2026).
